# Assay results taken from patent US4434159A, “Pharmaceutical composition for intrarectal administration, and suppository prepared therefrom” (Teijin Limited, priority 1980, dated 1984).
# Tested on: blood glucose level
# Assay: Decrease in blood glucose level after administration of insulin suppositories to rabbits
# Type: in vivo
# Details: 0.32 u/kg intramuscularly administered
# Procedure: 500 mg of the dispersion was filled into a gelatin capsule for suppositories to form a gelatin capsule suppository. One capsule contained 9.6 units of insulin. In the same manner as above, insulin suppositories were prepared using the other absorption aids shown in Table 4 instead of ascorbic acid. The content (units) of insulin and the amounts of the absorption aids and the base (fractionated coconut oil) were as shown in Table 4. […] Each time, 0.5 ml of the blood was withdrawn from the ear vein. The glucose level of the blood was measured by the glucose oxidase method. Table 4 summarizes the decrease (%) of the blood glucose level from that before the administration.
substance,measurement,setting,value
"Insulin: porcine insulin, intramuscularly administered as comparison",Decrease (%) in blood glucose level from that before administration,30 minutes,13.7%
same,Decrease (%) in blood glucose level from that before administration,1 hour,32.6%
same,Decrease (%) in blood glucose level from that before administration,2 hours,36.2%
same,Decrease (%) in blood glucose level from that before administration,3 hours,15.2%
